“Also recorded” adds a separate entry of the source. Where two headings read alike, the source gives them in different places.
Legend:
[1] = dog 7-day repeat dose PO study; assay type: in vivo; settings: dog 7 Day PO, N = 1
Protocol: The objective was to develop a preliminary toxicity profile of Compound 1 following daily oral (gavage) administration for 7 days to male and female dogs to support dose selection for a 28-day toxicity study in dogs. Doses were selected based on the results of the MTD phase. Dose levels were 0 (Vehicle Control), 200, 350 and 400 mg/kg (1 dog/sex/group). The vehicle was 0.5% aqueous HPMC.
The animals used in this study were returned to the holding colony

[2] = effect of food on oral bioavailability in rats; assay type: in vivo, rat
Protocol: The effect of food on oral bioavailability was determined.

[3] = tested on: incision-induced hyperalgesia; assay: Brennan incisional model, prophylactic paradigm; assay type: in vivo, rat
Text: Two incisional pain models were used to assess Compound 1 effects on hyperalgesia. The first model is referred to as the Brennan model in which, under anesthesia, a 1 cm longitudinal incision to the skin and underlying fascia of a rat hindpaw is made. The second is a variation but is a more invasive procedure in which the skin and muscle are spread apart using forceps which creates a longer-lasting hypersensitivity.
Using the Brennan protocol and a prophylactic paradigm, Compound 1 (3 doses given PO) or vehicle was administered 15 min prior to incision. At the 24-, 48-, and 72-h time points post-incision, mechanical thresholds were obtained (manual von Frey filament, using up/down method).
In a subsequent experiment, the same paradigm was used with Compound 1 administered at a dose of 30 mg/kg PO along with positive control group consisting of celecoxib (30 mg/kg PO), morphine (10 mg/kg SC), and vehicle.

[4] = rat pharmacokinetics after single PO dose; assay type: in vivo; settings: for Compound 1 Concentration in Rat Plasma / Compound 1 Concentration in Rat Plasma, Average / mean Cmax / t1/2: 100 mg/kg single PO; for Compound 1 Concentration in Rat Plasma: individual animals
Protocol: In both assays, a deuterated (Compound 1-d4) internal standard was used.
The objective of this non-GLP study was to determine the pharmacokinetics of Compound 1 after a single oral (gavage) dose in rats, and to determine if Compound 1 undergoes epimerization in the rat. Compound 1 was administered to CD® IGS [Crl:CD(SD)] (Sprague Dawley) rats (5/sex/group) as a single oral gavage dose of 100 mg/kg in a vehicle of 0.5% aqueous HPMC. Rats were dosed at a dose volume of 10 mL/kg body weight.

OAT3 = molecular target: T1, OAT3 (Homo sapiens, UniProt Q8TCC7); assay: transporter inhibition, HEK293 cells, probe accumulation; assay type: in vitro ADME
T1 construct: expressed in transfected cells; host or cells: HEK293 cells
T1 sequence (Q8TCC7 1-542): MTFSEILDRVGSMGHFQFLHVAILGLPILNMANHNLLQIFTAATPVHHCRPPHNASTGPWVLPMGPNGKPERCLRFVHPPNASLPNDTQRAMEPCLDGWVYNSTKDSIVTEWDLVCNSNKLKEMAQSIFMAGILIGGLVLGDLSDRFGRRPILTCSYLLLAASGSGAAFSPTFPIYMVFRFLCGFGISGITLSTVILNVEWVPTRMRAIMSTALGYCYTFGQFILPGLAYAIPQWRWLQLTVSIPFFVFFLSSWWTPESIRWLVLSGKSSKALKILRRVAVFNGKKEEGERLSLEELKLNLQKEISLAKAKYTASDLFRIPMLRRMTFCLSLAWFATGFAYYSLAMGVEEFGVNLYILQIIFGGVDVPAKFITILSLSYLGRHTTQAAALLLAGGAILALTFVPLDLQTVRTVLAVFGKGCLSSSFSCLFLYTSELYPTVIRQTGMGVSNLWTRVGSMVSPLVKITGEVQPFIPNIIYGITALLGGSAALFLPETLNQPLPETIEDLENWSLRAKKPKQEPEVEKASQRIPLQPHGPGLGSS

P-gp = molecular target: T2, P-gp (Homo sapiens, UniProt P08183); assay: transporter inhibition, Caco-2 cells, digoxin transport; assay type: in vitro ADME
T2 construct: Caco-2 cells; endogenous in cells; host or cells: Caco-2 cells
T2 sequence (P08183 whole entry): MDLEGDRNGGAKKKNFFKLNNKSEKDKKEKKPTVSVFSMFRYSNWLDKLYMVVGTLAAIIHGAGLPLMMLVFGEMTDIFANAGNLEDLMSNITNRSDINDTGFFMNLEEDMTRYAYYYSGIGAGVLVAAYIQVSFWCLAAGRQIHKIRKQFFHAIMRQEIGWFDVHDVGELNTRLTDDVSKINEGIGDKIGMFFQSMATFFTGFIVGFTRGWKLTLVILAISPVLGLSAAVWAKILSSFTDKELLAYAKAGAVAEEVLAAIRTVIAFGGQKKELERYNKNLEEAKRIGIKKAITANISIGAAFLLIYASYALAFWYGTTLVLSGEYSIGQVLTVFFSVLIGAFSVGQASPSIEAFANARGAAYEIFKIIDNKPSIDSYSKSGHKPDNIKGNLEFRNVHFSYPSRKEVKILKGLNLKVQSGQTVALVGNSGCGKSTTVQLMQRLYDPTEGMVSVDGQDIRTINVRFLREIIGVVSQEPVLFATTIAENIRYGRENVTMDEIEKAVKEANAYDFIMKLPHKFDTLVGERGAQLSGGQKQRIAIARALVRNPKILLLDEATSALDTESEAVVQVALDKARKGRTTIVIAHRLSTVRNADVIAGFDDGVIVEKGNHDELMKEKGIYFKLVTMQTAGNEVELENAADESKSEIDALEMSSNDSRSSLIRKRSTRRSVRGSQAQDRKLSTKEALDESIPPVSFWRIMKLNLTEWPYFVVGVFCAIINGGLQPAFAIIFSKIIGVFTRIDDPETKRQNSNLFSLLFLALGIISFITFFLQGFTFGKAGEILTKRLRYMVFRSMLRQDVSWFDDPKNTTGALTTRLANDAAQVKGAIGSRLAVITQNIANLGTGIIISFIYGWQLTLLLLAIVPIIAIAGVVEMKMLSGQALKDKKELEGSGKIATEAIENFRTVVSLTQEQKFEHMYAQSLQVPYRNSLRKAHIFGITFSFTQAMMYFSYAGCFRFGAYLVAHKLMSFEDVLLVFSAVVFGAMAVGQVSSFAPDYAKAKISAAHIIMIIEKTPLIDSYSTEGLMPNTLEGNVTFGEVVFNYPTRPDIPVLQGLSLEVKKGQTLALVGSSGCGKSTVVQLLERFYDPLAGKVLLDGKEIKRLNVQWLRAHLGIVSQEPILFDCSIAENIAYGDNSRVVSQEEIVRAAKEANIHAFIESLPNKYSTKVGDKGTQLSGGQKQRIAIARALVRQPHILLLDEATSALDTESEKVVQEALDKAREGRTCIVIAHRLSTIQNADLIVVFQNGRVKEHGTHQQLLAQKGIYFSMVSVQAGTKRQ

[5] = dog 28-day repeat dose PO study; assay type: in vivo; settings: for Cmax: dog 28 Day PO
Protocol: Beagle dogs (4/sex/group plus 2/sex/group for control and high dose animals for recovery) were administered daily doses of 0, 100, 250 or 400 mg/kg/day of Compound 1 in 0.5% HPMC. […] Dogs in Group 1 (Vehicle Control) were bled once at approximately 2-4 hours post-dose on those days.

## CC1(C)SC(Nc2ccccc2O)=N[C@@H]1C(=O)O.Cl [Compound 1, (R)-2-(2-hydroxyphenylamino)-5,5-dimethyl-4,5-dihydrothiazole-4-carboxylic acid mono-hydrochloride]
[1]; Day 1, 200 mg/kg, F
  AUC0-last: 582 µg·h/mL
  Cmax: 152 µg/mL
  t1/2: 1.3 h
[1]; Day 1, 200 mg/kg, M
  AUC0-last: 538 µg·h/mL
  Cmax: 150 µg/mL
  t1/2: 1.1 h
[1]; Day 1, 350 mg/kg, F
  AUC0-last: 834 µg·h/mL
  Cmax: 228 µg/mL
  t1/2: 1.2 h
[1]; Day 1, 350 mg/kg, M
  AUC0-last: 613 µg·h/mL
  Cmax: 176 µg/mL
  t1/2: 1.1 h
[1]; Day 1, 400 mg/kg, F
  AUC0-last: 464 µg·h/mL
  Cmax: 109 µg/mL
  t1/2: 3.9 h
[1]; Day 1, 400 mg/kg, M
  AUC0-last: 657 µg·h/mL
  Cmax: 167 µg/mL
  t1/2: 1.2 h
[1]; Day 7, 200 mg/kg, F
  AUC0-last: 411 µg·h/mL
  Cmax: 103 µg/mL
  t1/2: 1.5 h
[1]; Day 7, 200 mg/kg, M
  AUC0-last: 540 µg·h/mL
  Cmax: 121 µg/mL
  t1/2: 1.4 h
[1]; Day 7, 350 mg/kg, F
  AUC0-last: 738 µg·h/mL
  Cmax: 207 µg/mL
  t1/2: 2.4 h
  tmax: 0.5 h
[1]; Day 7, 350 mg/kg, M
  AUC0-last: 591 µg·h/mL
  Cmax: 184 µg/mL
  t1/2: 1.2 h
[1]; Day 7, 400 mg/kg, F
  AUC0-last: 751 µg·h/mL
  Cmax: 183 µg/mL
  t1/2: 2.5 h
[1]; Day 7, 400 mg/kg, M
  AUC0-last: 210 µg·h/mL
  Cmax: 69 µg/mL
  t1/2: 1.3 h
[2]; 10 mg/kg oral
  peak plasma concentrations, fasted compared to fed: significantly increased peak plasma concentrations
[2]; 100 mg/kg oral
  differences in pharmacokinetic properties, fed vs fasted: No statistically significant differences
[3]; 10 mg/kg PO single dose 15 min prior to incision, mono-hydrochloride
  hyperalgesia, effect relative to vehicle: statistically significant reversal of hyperalgesia; also recorded: statistically significant effect
[3]; 30 mg/kg PO single dose
  hyperalgesia, effect relative to vehicle: full efficacy
[3]; 3 doses PO, 15 min prior to incision, 24, 48, 72 h post-incision
  hyperalgesia, mechanical thresholds (von Frey) relative to vehicle: reversal of hyperalgesia in a dose-dependent manner
[4]; Female, 0.5 h post-dose, mono-hydrochloride, 100 mg/kg
  Compound 1 Concentration in Rat Plasma: 34.3 µg/mL
[4]; Female, 1 h post-dose
  Compound 1 Concentration in Rat Plasma, Average: 60.1 µg/mL
[4]; Female, 1 h post-dose, mono-hydrochloride, 100 mg/kg
  Compound 1 Concentration in Rat Plasma: 53.9 µg/mL
[4]; Female, 4 h post-dose
  Compound 1 Concentration in Rat Plasma, Average: 22.6 µg/mL
[4]; Male, 0.5 h post-dose, mono-hydrochloride, 100 mg/kg
  Compound 1 Concentration in Rat Plasma: 13.8 µg/mL
[4]; Male, 1 h post-dose
  Compound 1 Concentration in Rat Plasma, Average: 14.9 µg/mL
[4]; Male, 2 h post-dose
  Compound 1 Concentration in Rat Plasma, Average: 14.3 µg/mL
[4]; Male, 2 h post-dose, mono-hydrochloride, 100 mg/kg
  Compound 1 Concentration in Rat Plasma: 16.3 µg/mL
[4]; Male, 8 h post-dose, mono-hydrochloride, 100 mg/kg
  Compound 1 Concentration in Rat Plasma: 1.61 µg/mL
[4]; Male, 24 h post-dose
  Compound 1 Concentration in Rat Plasma: BQL
[4]; females
  mean Cmax: 60 µg/mL
  t1/2: 4 h
[4]; males
  mean Cmax: 15 µg/mL
  t1/2: 7 h
[4]; rat plasma
  epimerization in vivo (chiral column): did not provide any evidence of epimerization
OAT3
  inhibition: weakly inhibits
P-gp
  inhibition: does not inhibit
[5]; both sexes, beagle, dog, in vivo, po, dog 28-day PO, all animals, read-out: median tmax
  Tmax at 28 days: 1 h
[5]; both sexes, beagle, dog, in vivo, po, dog 28-day study (summary), read-out: Tmax
  Tmax at 28 days: ≤ 1 h
[5]; both sexes, beagle, in vivo, po, dog 28-day pivotal study, at some doses
  Cmax at 28 days: > 100 µg/mL
[5]; both, beagle, dog, in vivo, po
  mean t1/2: 3.5 h
[5]; Day 1, 100 mg/kg, F
  Cmax: 69.3 µg/mL
[5]; Day 1, 100 mg/kg, M
  Cmax: 49.9 µg/mL
[5]; Day 1, 250 mg/kg, F
  Cmax: 101 µg/mL
[5]; Day 1, 250 mg/kg, M
  Cmax: 104 µg/mL
[5]; Day 1, 400 mg/kg, F
  Cmax: 129 µg/mL
[5]; Day 1, 400 mg/kg, M
  Cmax: 128 µg/mL
[5]; Day 15, 100 mg/kg, F
  Cmax: 53.0 µg/mL
[5]; Day 15, 100 mg/kg, M
  Cmax: 50.4 µg/mL
[5]; Day 15, 250 mg/kg, F
  Cmax: 94.6 µg/mL
[5]; Day 15, 250 mg/kg, M
  Cmax: 88.0 µg/mL
[5]; Day 15, 400 mg/kg, F
  Cmax: 123 µg/mL
[5]; Day 15, 400 mg/kg, M
  Cmax: 112 µg/mL
[5]; Day 28, 100 mg/kg, F
  Cmax: 60.8 µg/mL
[5]; Day 28, 100 mg/kg, M
  Cmax: 45.0 µg/mL
[5]; Day 28, 250 mg/kg, F
  Cmax: 89.5 µg/mL
[5]; Day 28, 250 mg/kg, M
  Cmax: 105 µg/mL
[5]; Day 28, 400 mg/kg, F
  Cmax: 131 µg/mL
[5]; Day 28, 400 mg/kg, M
  Cmax: 125 µg/mL
